ChEMBL document CHEMBL5352410, “Discovery of novel selenium-containing azole derivatives as antifungal agents by exploiting the hydrophobic cleft of CYP51” (Eur J Med Chem, 2022)
Converted amounts (≈) assume the structure as drawn.

What was measured:
[1] = test system: Candida albicans; assay: Antifungal activity against Candida albicans sc5314 by CLSI based broth microdilution method; assay type: functional
[2] = test system: Candida albicans; assay: Antifungal activity against Candida albicans by CLSI based broth microdilution method; assay type: functional
[3] = test system: Nakaseomyces glabratus; assay: Antifungal activity against Candida glabrata by CLSI based broth microdilution method; assay type: functional
[4] = test system: Candida parapsilosis; assay: Antifungal activity against Candida parapsilosis by CLSI based broth microdilution method; assay type: functional; settings: Lodderomyces parapsilosis
[5] = test system: Pichia kudriavzevii; assay: Antifungal activity against Pichia kudriavzevii by CLSI based broth microdilution method; assay type: functional
[6] = test system: [Candida] zeylanoides; assay: Antifungal activity against Candida zeylanoides by CLSI based broth microdilution method; assay type: functional; settings: Dujonia zeylanoides
[7] = test system: Cryptococcus neoformans; assay: Antifungal activity against Cryptococcus neoformans by CLSI based broth microdilution method; assay type: functional
[8] = test system: Aspergillus fumigatus; assay: Antifungal activity against Aspergillus fumigatus by CLSI based broth microdilution method; assay type: functional
[9] = test system: Candida albicans; assay: Antifungal activity against FCZ-resistant Candida albicans CaR by CLSI based broth microdilution method; assay type: functional
[10] = test system: Candida albicans; assay: Antifungal activity against FCZ-resistant Candida albicans 17# by CLSI based broth microdilution method; assay type: functional
[11] = test system: Candida albicans; assay: Antifungal activity against FCZ-resistant Candida albicans 632 by CLSI based broth microdilution method; assay type: functional
[12] = test system: Candida albicans; assay: Antifungal activity against FCZ-resistant Candida albicans 901 by CLSI based broth microdilution method; assay type: functional
[13] = test system: Candida albicans; assay: Antifungal activity against FCZ-resistant Candida albicans 904 by CLSI based broth microdilution method; assay type: functional
[14] = molecular target: T1, Lanosterol 14-alpha demethylase (Candida albicans (strain SC5314 / ATCC MYA-2876) (Yeast), UniProt P10613); assay: Inhibition of CYP51 of Candida albicans ATCC SC5314 assessed as decrease in ergosterol level by measuring residual activity at 1 ug/ml incubated for 16 hrs by GC-MS analysis (reference value: 98.3 %); settings: at 1 µg/mL
[15] = molecular target: T1, Lanosterol 14-alpha demethylase; assay: Inhibition of CYP51 of Candida albicans ATCC SC5314 assessed as decrease in ergosterol level by measuring residual activity at 2 ug/ml incubated for 16 hrs by GC-MS analysis (reference value: 98.3 %); settings: at 2 µg/mL
[16] = molecular target: T1, Lanosterol 14-alpha demethylase; assay: Inhibition of CYP51 of Candida albicans ATCC SC5314 assessed as decrease in ergosterol level by measuring residual activity at 4 ug/ml incubated for 16 hrs by GC-MS analysis (reference value: 98.3 %); settings: at 4 µg/mL
[17] = molecular target: T1, Lanosterol 14-alpha demethylase; assay: Inhibition of CYP51 of Candida albicans ATCC SC5314 assessed as decrease in ergosterol level by measuring residual activity at 8 ug/ml incubated for 16 hrs by GC-MS analysis (reference value: 98.3 %); settings: at 8 µg/mL
[18] = molecular target: T1, Lanosterol 14-alpha demethylase; assay: Inhibition of CYP51 of Candida albicans ATCC SC5314 assessed as increase in obtusifoliol level at 1 ug/ml incubated for 16 hrs by GC-MS analysis (reference value: 0 %); design: scale not given: the % may be the effect or the level left; settings: at 1 µg/mL
[19] = molecular target: T1, Lanosterol 14-alpha demethylase; assay: Inhibition of CYP51 of Candida albicans ATCC SC5314 assessed as increase in obtusifoliol level at 2 ug/ml incubated for 16 hrs by GC-MS analysis (reference value: 0 %); design: scale not given: the % may be the effect or the level left; settings: at 2 µg/mL
[20] = molecular target: T1, Lanosterol 14-alpha demethylase; assay: Inhibition of CYP51 of Candida albicans ATCC SC5314 assessed as increase in obtusifoliol level at 4 ug/ml incubated for 16 hrs by GC-MS analysis (reference value: 0 %); design: scale not given: the % may be the effect or the level left; settings: at 4 µg/mL
[21] = molecular target: T1, Lanosterol 14-alpha demethylase; assay: Inhibition of CYP51 of Candida albicans ATCC SC5314 assessed as increase in obtusifoliol level at 8 ug/ml incubated for 16 hrs by GC-MS analysis (reference value: 0 %); design: scale not given: the % may be the effect or the level left; settings: at 8 µg/mL
[22] = molecular target: T1, Lanosterol 14-alpha demethylase; assay: Inhibition of CYP51 of Candida albicans ATCC SC5314 assessed as increase in lanosterol level at 1 ug/ml incubated for 16 hrs by GC-MS analysis (reference value: 1.7 %); design: scale not given: the % may be the effect or the level left; settings: at 1 µg/mL
[23] = molecular target: T1, Lanosterol 14-alpha demethylase; assay: Inhibition of CYP51 of Candida albicans ATCC SC5314 assessed as increase in lanosterol level at 2 ug/ml incubated for 16 hrs by GC-MS analysis (reference value: 1.7 %); design: scale not given: the % may be the effect or the level left; settings: at 2 µg/mL
[24] = molecular target: T1, Lanosterol 14-alpha demethylase; assay: Inhibition of CYP51 of Candida albicans ATCC SC5314 assessed as increase in lanosterol level at 4 ug/ml incubated for 16 hrs by GC-MS analysis (reference value: 1.7 %); design: scale not given: the % may be the effect or the level left; settings: at 4 µg/mL
[25] = molecular target: T1, Lanosterol 14-alpha demethylase; assay: Inhibition of CYP51 of Candida albicans ATCC SC5314 assessed as increase in lanosterol level at 8 ug/ml incubated for 16 hrs by GC-MS analysis (reference value: 1.7 %); design: scale not given: the % may be the effect or the level left; settings: at 8 µg/mL
[26] = molecular target: T1, Lanosterol 14-alpha demethylase; assay: Inhibition of CYP51 of Candida albicans ATCC SC5314 assessed as increase in eburicol level at 1 ug/ml incubated for 16 hrs by GC-MS analysis (reference value: 0 %); design: scale not given: the % may be the effect or the level left; settings: at 1 µg/mL
[27] = molecular target: T1, Lanosterol 14-alpha demethylase; assay: Inhibition of CYP51 of Candida albicans ATCC SC5314 assessed as increase in eburicol level at 2 ug/ml incubated for 16 hrs by GC-MS analysis (reference value: 0 %); design: scale not given: the % may be the effect or the level left; settings: at 2 µg/mL
[28] = molecular target: T1, Lanosterol 14-alpha demethylase; assay: Inhibition of CYP51 of Candida albicans ATCC SC5314 assessed as increase in eburicol level at 4 ug/ml incubated for 16 hrs by GC-MS analysis (reference value: 0 %); design: scale not given: the % may be the effect or the level left; settings: at 4 µg/mL
[29] = molecular target: T1, Lanosterol 14-alpha demethylase; assay: Inhibition of CYP51 of Candida albicans ATCC SC5314 assessed as increase in eburicol level at 8 ug/ml incubated for 16 hrs by GC-MS analysis (reference value: 0 %); design: scale not given: the % may be the effect or the level left; settings: at 8 µg/mL
[30] = test system: Candida albicans; assay: Antibiofilm activity against Candida albicans SC5314 assessed as sessile minimum inhibitory concentration measured after 1.5 hrs by XTT assay; assay type: functional
[31] = test system: Candida albicans; assay: Antibiofilm activity against Candida albicans SC5314 assessed as sessile minimum inhibitory concentration measured after 3 hrs by XTT assay; assay type: functional
[32] = test system: Candida albicans; assay: Antibiofilm activity against Candida albicans SC5314 assessed as sessile minimum inhibitory concentration measured after 6 hrs by XTT assay; assay type: functional
[33] = test system: Candida albicans; assay: Antibiofilm activity against Candida albicans SC5314 assessed as sessile minimum inhibitory concentration measured after 24 hrs by XTT assay; assay type: functional
[34] = test system: Candida albicans; assay: Antibiofilm activity against Candida albicans CPCC400616 assessed as sessile minimum inhibitory concentration measured after 1.5 hrs by XTT assay; assay type: functional
[35] = test system: Candida albicans; assay: Antibiofilm activity against Candida albicans CPCC400616 assessed as sessile minimum inhibitory concentration measured after 3 hrs by XTT assay; assay type: functional
[36] = test system: Candida albicans; assay: Antibiofilm activity against Candida albicans CPCC400616 assessed as sessile minimum inhibitory concentration measured after 6 hrs by XTT assay; assay type: functional
[37] = test system: Candida albicans; assay: Antibiofilm activity against Candida albicans CPCC400616 assessed as sessile minimum inhibitory concentration measured after 24 hrs by XTT assay; assay type: functional

T1 sequence (P10613 whole entry): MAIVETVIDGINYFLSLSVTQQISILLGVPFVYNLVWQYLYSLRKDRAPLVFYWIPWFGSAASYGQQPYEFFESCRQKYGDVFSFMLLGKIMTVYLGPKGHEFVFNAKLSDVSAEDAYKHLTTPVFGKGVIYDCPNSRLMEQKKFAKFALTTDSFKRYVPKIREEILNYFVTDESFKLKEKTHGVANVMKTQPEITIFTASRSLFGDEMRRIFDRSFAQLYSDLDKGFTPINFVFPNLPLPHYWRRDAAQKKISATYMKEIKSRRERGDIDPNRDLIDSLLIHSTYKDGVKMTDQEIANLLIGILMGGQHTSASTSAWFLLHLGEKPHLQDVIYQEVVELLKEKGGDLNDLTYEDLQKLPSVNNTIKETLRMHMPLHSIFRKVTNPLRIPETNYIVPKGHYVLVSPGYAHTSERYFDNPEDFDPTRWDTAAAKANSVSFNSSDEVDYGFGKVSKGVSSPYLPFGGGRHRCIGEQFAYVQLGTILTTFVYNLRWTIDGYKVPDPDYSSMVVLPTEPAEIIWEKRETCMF

SMILES: OC(Cn1cncn1)(Cn1cncn1)c1ccc(F)cc1F [FLUCONAZOLE]
- MIC [1]: 1 mg/L (≈ 3.27 µM)
- MIC [2]: 4 mg/L (≈ 13.1 µM)
- MIC [3]: 32 mg/L (≈ 104 µM)
- MIC [4]: 4 mg/L (≈ 13.1 µM)
- MIC [5]: 32 mg/L (≈ 104 µM)
- MIC [6]: 2 mg/L (≈ 6.53 µM)
- MIC [7]: 4 mg/L (≈ 13.1 µM)
- MIC [8]: > 64 mg/L
- MIC [9]: > 64 mg/L
- MIC [10]: > 64 mg/L
- MIC [11]: > 64 mg/L
- MIC [12]: > 64 mg/L
- MIC [13]: > 64 mg/L
- Activity [14]: 3.9%
- Activity [15]: 2.5%
- Activity [16]: 2.5%
- Activity [17]: 1.1%
- Activity [18]: 13.9%
- Activity [19]: 13.1%
- Activity [20]: 12.5%
- Activity [21]: 14.8%
- Activity [22]: 14.9%
- Activity [23]: 15.7%
- Activity [24]: 15.4%
- Activity [25]: 14.3%
- Activity [26]: 67.3%
- Activity [27]: 68.7%
- Activity [28]: 69.6%
- Activity [29]: 69.9%
- MIC50 [30]: > 1020 mg/L
- MIC80 [30]: > 1020 mg/L
- MIC50 [31]: > 1020 mg/L
- MIC80 [31]: > 1020 mg/L
- MIC50 [32]: > 1020 mg/L
- MIC80 [32]: > 1020 mg/L
- MIC50 [33]: > 1020 mg/L
- MIC80 [33]: > 1020 mg/L
- MIC50 [34]: > 1020 mg/L
- MIC80 [34]: > 1020 mg/L
- MIC50 [35]: > 1020 mg/L
- MIC80 [35]: > 1020 mg/L
- MIC50 [36]: > 1020 mg/L
- MIC80 [36]: > 1020 mg/L
- MIC50 [37]: > 1020 mg/L
- MIC80 [37]: > 1020 mg/L
